We go through five compounds from patent publication EP0377457A1, “Thiazole compounds, processes for the preparation thereof, and pharmaceutical composition comprising the same” (FUJISAWA PHARMACEUTICAL CO., LTD., priority 1989, dated 1990).

Structures can show the parent of a compound that is named as a salt. Where two headings read alike, the source gives them in different places.

The term inhibition denotes the percentage by which the read-out fell short of the control. Usually half-life stands for the time needed for the level to fall by half in the phase considered. A higher half-life goes with slow loss.

For one data set, the system named is isolated rat aorta. The experiment in a line: Relaxation effect on isolated rat aorta. The protocol: Contraction was induced by addition of KCt solution (final concentration was 30 mM).
The subject of data set [1] is SRS-A synthesis or release from peritoneal exudate cells. Nature of the data set: Anti-SRS-A activity. The data set is classed as cell-based, SD rats. Particulars: rat peritoneal exudate cells; Ca++-ionophore 1 µg/ml; SRS-A read on isolated guinea pig ileum; read-out: Inhibitory Concentration IC50. The protocol: Peritoneal exudate cells were collected from glycogen-injected SD rats and adjusted to 1 x 10^7 cells/ml with Tyrode's solution. One milliliter of the cell suspension was incubated with indomethacin (10 µg/ml) and each varied concentration of the test compound for 10 minutes and, then, further incubated with Ca^++ - ionophore (A123187, 1 µg/ml) for 10 minutes. The supernatant was collected by centrifugation and the SRS-A (slow-reacting substance of anaphylaxis) activity was determined in terms of contractility of the isolated guinea pig ileum in the presence of mepyramine, atropine and methysergide.
The results were expressed in terms of the 50% inhibitory concentration to SRS-A synthesis or release from peritoneal exudate cells.

For another data set, the system named is rats. Nature of the data set: Acute toxicity. The data set is classed as in vivo. The note with it: peroral administration, 100 mg/kg.
In data set [2] the test system is platelet aggregation. The experiment in a line: Platelet aggregation ex vivo (arachidonic acid-induced, PRP after oral administration). The data set is classed as in vivo, guinea-pigs. Particulars: Cavia porcellus, 6 h, dose 1.0 mg/kg oral, blood collected six hours after administration, arachidonic acid final 50 µM as inducer. The protocol:
Male Hartley guinea-pigs weighing about 300 g were used after 24 hours fasting. Six hours after oral administration of the test compound or vehicle of test compound (control), blood was collected into a tube containing 0.1 vol. of 3.8% sodium citrate and prepared platelet rich plasma (PRP).
To the 250 µl of PRP, 5 µl of arachidonic acid (final 50 µM) was added as an aggregation inducer. Aggregation was measured by using an aggregometer (NKK HEMA-TRACER 1).

The next data set deals with Paw edema. Nature of the data set: Antiinflammatory activity (carrageenin paw edema). The data set is classed as in vivo, Sprague-Dawly rats. The note with it: 100 mg/kg orally 60 minutes before carrageenin; edema volume at 3 hours. The protocol: Five male Sprague-Dawly rats weighing 160-180 g were used per group. Paw edema was induced by subplantar injection of 1 % carrageenin (0.1 ml/rat) into the right hind paw. The test drug was suspended in 0.5% methylcellulose and administered orally 60 minutes before phlogogen. Paw volume was measured with plethysmometer (Ugo Bazil Co., Ltd.) by water displacement immersing the paw to the lateral malleolus. The difference of paw volume before and 3 hours after the phlogogen was designated as edema volume. The data were analyzed statistically by student's t-test.
On the technique in general: Carrageenan injected into the paw causes an acute inflammation.

In the next data set the target is T1, cyclooxygenase (Ovis aries, UniProt P05979).
T1 construct: 240 µg of the microsomal enzyme; tissue Ran Biochem (Israel); host or cells: sheep seminal vesicles, microsomal fraction
T1 sequence (P05979 25-600): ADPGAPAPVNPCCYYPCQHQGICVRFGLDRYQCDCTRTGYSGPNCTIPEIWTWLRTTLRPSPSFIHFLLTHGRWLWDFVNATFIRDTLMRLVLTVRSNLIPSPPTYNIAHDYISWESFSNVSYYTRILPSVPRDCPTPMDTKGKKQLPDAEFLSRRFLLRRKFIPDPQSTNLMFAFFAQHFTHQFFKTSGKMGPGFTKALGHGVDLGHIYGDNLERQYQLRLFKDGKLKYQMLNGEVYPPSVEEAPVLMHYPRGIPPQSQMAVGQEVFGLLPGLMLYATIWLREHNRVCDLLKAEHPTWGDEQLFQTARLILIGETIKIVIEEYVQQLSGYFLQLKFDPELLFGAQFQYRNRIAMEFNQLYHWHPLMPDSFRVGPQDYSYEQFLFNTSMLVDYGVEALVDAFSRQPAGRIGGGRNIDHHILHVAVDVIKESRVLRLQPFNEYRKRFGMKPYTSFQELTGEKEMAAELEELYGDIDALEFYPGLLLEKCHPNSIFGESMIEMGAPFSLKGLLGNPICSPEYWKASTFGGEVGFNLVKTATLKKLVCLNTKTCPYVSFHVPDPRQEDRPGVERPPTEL
The experiment in a line: Assay for cyclooxygenase inhibition. The data set is classed as biochemical, sheep. The protocol:
The microsomal fraction from sheep seminals vesicles was purchased from Ran Biochem (Israel). The reaction mixture consisted of 0.1 M Tris-HCI, pH 7.6, 1 mM epinephrine, 2 mM glutathione, 240 µg of the microsomal enzyme, in a total volume of 200 µl. The reaction was started by the addition of 10 µM (^14C) arachidonic acid (120 nM), and incubated at 37° C for 5 min. The reaction was stopped by the addition of 50 µl of 1 N HCI. The synthesized prostaglandins were extracted with 1.5 ml of ethylacetate. The ethyl acetate layer was dried with nitrogen gas, and dissolved in 100 µl of methanol. Ten microliters of the methanol solution were applied to a thin-layer plate (Merck, Kiesegel 60F), and developed with ethylacetate : acetate (100:2). The PGE2 fraction was scraped out, and the radioactivity was counted with 10 ml of toluene scintilator.
The activity of the test compound was expressed as IC50 value i.e. doses required to inhibit the activity of cyclooxygenase by 50%.

Another data set relates to stomachs of the rats. The experiment in a line: Effect on stomach of rats. In kind it is in vivo. Particulars: 100 mg/kg orally, rats treated as in the antiinflammatory test.
The nature of a further data set: Half-life period. The note with it: rat, in vivo; rats, intravenous administration (0.32 mg/kg), (,B-phase).
A further data set concerns human washed platelets. Nature of the data set: Thrombin induced aggregation in human washed platelets. In kind it is cell-based. The note with it: Platelet, concentration 1.0 x 10^-5 M, thrombin final conc. 0.3-0.5 U/ml. The protocol: Blood was drawn from healthy volunteers into a plastic tube containing 1/10 volume of 3.8% sodium citrate and centrifuged at 120 g for 10 min to obtain platelet rich plasma (PRP). An equal volume of 25 mM Tris-HCI buffer (pH 7.4) containing 130 mM NaCl and 1.5 mM EDTA (buffer A) was added to the PRP, mixed and centrifuged at 1500 g for 10 min. The platelet pellet was suspended in buffer A and centrifuged at 1500 g for 5 min. The platelets were resuspended in 25 mM Tris-HCI buffer (pH 7.4) containing 130 mM NaCl and 0.3 mM EDTA and recentrifuged at 1500 g for 5 min. The platelets were finally suspended in Tyrode solution containing 0.3 % bovine serum albumin and the platelet count was adjusted to 3 x 10^8/ml. To 247.5 µl of platelet suspension, 2.5 µl of drug solution was added and incubated for 2 min at 37° C prior to addition of thrombin solution (final conc. 0.3-0.5 U/ml). Platelet aggregation was turbidometrically measured using a HEMATRACER 1.

In data set [3] the test system is platelet aggregation. The experiment in a line: Platelet aggregation in vitro (collagen-induced, guinea-pig PRP). In kind it is cell-based. The note with it: Cavia porcellus, collagen (0.5 µg/ml) as inducer. The protocol: (§1) Platelet rich plasma (PRP) which contains 6 - 7 x 10^8 platelets/ml and 3 x 10^8 platelets/ml was prepared from guinea-pig and human blood, respectively. To the each 245 µℓ of PRP, 5 µℓ of drug solution^* was added, and then stirred for 2 min at 37° C. To the solution, […] of collagen (0.5 µg/mℓ) was added as an aggregation inducer. Aggregation was measured by using an aggregometer (NKK HEMA-TRACER 1). Activities of inhibitors (test compounds) were expressed as IC50 values i.e. doses required to inhibit the platelet aggregation responses by 50%.
(§2) Drug solution^* --- Test compounds were dissolved in a mixture of ethanol, polyethylene glycol and saline (1:1:2, V/V/V) and dimethylsulfoxide for guinea-pig and human blood, respectively.

Data set [4] relates to platelet aggregation. The experiment in a line: Platelet aggregation in vitro (collagen-induced, human PRP). The note with it: collagen (0.5 µg/ml) as inducer. The data set is classed as cell-based. The protocol:
as §1, §2

[5] abbreviates: contraction induced by KCl 30 mM, maximum relaxation by papaverine, read-out: ED50 (the source's name).

As for `COc1ccc(-c2nc(C(=O)N3CCN(C)CC3)sc2-c2ccc(OC)cc2)cc1.Cl` [Example 1, 4,5-bis(4-methoxyphenyl)-2-(4-methylpiperazin-1-yl)carbonylthiazole hydrochloride], the EC50 with isolated rat aorta (read-out: ED50 (M)) was 6.2e-06 M. Besides, the values for the IC50 (in [1]; against cyclooxygenase) were 6.28 mg/L and 0.43 µM, respectively. Moreover, the “acute toxicity (dead)” value with rats is listed as “the dead at dose of 100 mg/kg could not be observed”. In addition, in the data set with platelet aggregation [2], at 1 mg/kg the inhibition was 100%. Besides, in the data set with Paw edema, the “Inhibition (%) (Dose : 100 mg/kg)” value is recorded as 36.2%. Besides, the “lesion in the stomachs” value with stomachs of the rats is listed as “No lesion was observed”. In “Half-life period”, this compound showed a half-life of 4.51 h.

As to `COc1ccc(-c2nc(C(=O)N(C)C)sc2-c2ccc(OC)cc2)cc1` [Example 3, 4,5-bis(4-methoxyphenyl)-2-(N,N-dimethylcarbamoyl) thiazole], in the data set on isolated rat aorta (setting [5]), the EC50 came out at 3e-06 M.

The compound `COc1ccc(-c2nc(CNC(=N)N)sc2-c2ccc(OC)cc2)cc1` [Example 12, 4,5-bis(4-methoxyphenyl)-2-guanidinomethylthiazole hydrochloride] yielded an inhibition at 10 µM in the data set with human washed platelets of 100%.

Turning to `COc1ccc(-c2nc(NC(=N)N(C)C)sc2-c2ccc(OC)cc2)cc1` [Example 14, 4,5-bis(4-methoxyphenyl)-2-(3,3-dimethylguanidino)thiazole hydrochloride], the EC50 with isolated rat aorta (setting [5]) came to 4.8e-06 M. For the same compound, the IC50 was found to be 0.042 µM with platelet aggregation [3] and 0.56 µM in the data set on platelet aggregation [4].

In the case of `CN=C(NC)Nc1nc(-c2ccc(OC)cc2)c(-c2ccc(OC)cc2)s1` [Example 21, 4,5-Bis(4-methoxyphenyl)-2-(2,3-dimethylguanidino)thiazole methanesulfonate], the EC50 in the data set with isolated rat aorta (setting [5]) was 2.4e-06 M.
